Data as given in ChEMBL document CHEMBL4507304, “Data for DCP probe TP-021” (2021).

Key:
[1] = target: MAP kinase-activated protein kinase 2 (Homo sapiens) (UniProt P49137); settings: Compound concentration 1000.0 nM
[2] = target: Ribosomal protein S6 kinase alpha-1 (Homo sapiens) (UniProt Q15418); settings: Compound concentration 1000.0 nM
[3] = target: NUAK family SNF1-like kinase 1 (Homo sapiens) (UniProt O60285); settings: Compound concentration 1000.0 nM
[4] = target: Ephrin type-A receptor 4 (Homo sapiens) (UniProt P54764); settings: Compound concentration 1000.0 nM
[5] = target: Macrophage-stimulating protein receptor (Homo sapiens) (UniProt Q04912); settings: Compound concentration 1000.0 nM
[6] = target: Serine/threonine-protein kinase ULK3 (Homo sapiens) (UniProt Q6PHR2); settings: Compound concentration 1000.0 nM
[7] = target: Phosphatidylinositol 4-kinase beta (Homo sapiens) (UniProt Q9UBF8); settings: Compound concentration 1000.0 nM
[8] = target: Mitogen-activated protein kinase kinase kinase 13 (Homo sapiens) (UniProt O43283); settings: Compound concentration 1000.0 nM
[9] = target: Serine/threonine-protein kinase MAK (Homo sapiens) (UniProt P20794); settings: Compound concentration 1000.0 nM
[10] = target: TGF-beta receptor type-1 (Homo sapiens) (UniProt P36897); settings: Compound concentration 1000.0 nM
[11] = target: Hormonally up-regulated neu tumor-associated kinase (Homo sapiens) (UniProt P57058); settings: Compound concentration 1000.0 nM
[12] = target: cAMP-dependent protein kinase catalytic subunit beta (Homo sapiens) (UniProt P22694); settings: Compound concentration 1000.0 nM
[13] = target: Receptor-interacting serine/threonine-protein kinase 4 (Homo sapiens) (UniProt P57078); settings: Compound concentration 1000.0 nM
[14] = target: Homeodomain-interacting protein kinase 2 (Homo sapiens) (UniProt Q9H2X6); settings: Compound concentration 1000.0 nM
[15] = target: Rho-associated protein kinase 1 (Homo sapiens) (UniProt Q13464); settings: Compound concentration 1000.0 nM
[16] = test system: Mast/stem cell growth factor receptor Kit (Homo sapiens), P10721 [D816H]; settings: Compound concentration 1000.0 nM
[17] = target: Phosphatidylinositol 4-phosphate 5-kinase type-1 alpha (Homo sapiens) (UniProt Q99755); settings: Compound concentration 1000.0 nM
[18] = target: Serine/threonine-protein kinase 4 (Homo sapiens) (UniProt Q13043); settings: Compound concentration 1000.0 nM
[19] = target: Mitogen-activated protein kinase 9 (Homo sapiens) (UniProt P45984); settings: Compound concentration 1000.0 nM
[20] = test system: Tyrosine-protein kinase ABL1 (Homo sapiens), P00519 [M351T]; settings: Compound concentration 1000.0 nM
[21] = target: Mitogen-activated protein kinase kinase kinase kinase 3 (Homo sapiens) (UniProt Q8IVH8); settings: Compound concentration 1000.0 nM
[22] = target: Ribosomal protein S6 kinase beta-1 (Homo sapiens) (UniProt P23443); settings: Compound concentration 1000.0 nM
[23] = test system: Receptor-type tyrosine-protein kinase FLT3 (Homo sapiens), P36888 [D835Y]; settings: Compound concentration 1000.0 nM
[24] = target: Muscarinic acetylcholine receptor M5 (Homo sapiens) (UniProt P08912); settings: Compound concentration 10.0 uM
[25] = target: Tyrosine-protein kinase JAK1 (Homo sapiens) (UniProt P23458); settings: Compound concentration 1000.0 nM
[26] = target: Atypical kinase COQ8B, mitochondrial (Homo sapiens) (UniProt Q96D53); settings: Compound concentration 1000.0 nM
[27] = target: Mitogen-activated protein kinase kinase kinase 7 (Homo sapiens) (UniProt O43318); settings: Compound concentration 1000.0 nM
[28] = target: Dual serine/threonine and tyrosine protein kinase (Homo sapiens) (UniProt Q6XUX3); settings: Compound concentration 1000.0 nM
[29] = test system: Tyrosine-protein kinase ABL1 (Homo sapiens), P00519 [T315I]; settings: Compound concentration 1000.0 nM
[30] = target: Serine/threonine-protein kinase TNNI3K (Homo sapiens) (UniProt Q59H18); settings: Compound concentration 1000.0 nM
[31] = target: TRAF2 and NCK-interacting protein kinase (Homo sapiens) (UniProt Q9UKE5); settings: Compound concentration 1000.0 nM
[32] = target: Alpha-2A adrenergic receptor (Homo sapiens) (UniProt P08913); settings: Compound concentration 10.0 uM
[33] = target: Megakaryocyte-associated tyrosine-protein kinase (Homo sapiens) (UniProt P42679); settings: Compound concentration 1000.0 nM
[34] = target: Ribosomal protein S6 kinase alpha-3 (Homo sapiens) (UniProt P51812); settings: Compound concentration 1000.0 nM
[35] = target: Tyrosine-protein kinase receptor TYRO3 (Homo sapiens) (UniProt Q06418); settings: Compound concentration 1000.0 nM
[36] = target: Calcium/calmodulin-dependent protein kinase kinase 1 (Homo sapiens) (UniProt Q8N5S9); settings: Compound concentration 1000.0 nM
[37] = target: Cyclin-dependent kinase 2 (Homo sapiens) (UniProt P24941); settings: Compound concentration 1000.0 nM
[38] = target: RAF proto-oncogene serine/threonine-protein kinase (Homo sapiens) (UniProt P04049); settings: Compound concentration 1000.0 nM
[39] = target: Serine/threonine-protein kinase TAO3 (Homo sapiens) (UniProt Q9H2K8); settings: Compound concentration 1000.0 nM
[40] = target: Rhodopsin kinase GRK1 (Homo sapiens) (UniProt Q15835); settings: Compound concentration 1000.0 nM
[41] = target: BDNF/NT-3 growth factors receptor (Homo sapiens) (UniProt Q16620); settings: Compound concentration 1000.0 nM
[42] = target: Epidermal growth factor receptor (Homo sapiens) (UniProt P00533); settings: Compound concentration 1000.0 nM
[43] = target: Serine/threonine-protein kinase BRSK2 (Homo sapiens) (UniProt Q8IWQ3); settings: Compound concentration 1000.0 nM
[44] = target: Ribosomal protein S6 kinase alpha-6 (Homo sapiens) (UniProt Q9UK32); settings: Compound concentration 1000.0 nM
[45] = target: 5-hydroxytryptamine receptor 2B (Homo sapiens) (UniProt P41595); settings: Compound concentration 10.0 uM

Chain of NUAK family SNF1-like kinase 1 (Homo sapiens) (O60285 whole entry): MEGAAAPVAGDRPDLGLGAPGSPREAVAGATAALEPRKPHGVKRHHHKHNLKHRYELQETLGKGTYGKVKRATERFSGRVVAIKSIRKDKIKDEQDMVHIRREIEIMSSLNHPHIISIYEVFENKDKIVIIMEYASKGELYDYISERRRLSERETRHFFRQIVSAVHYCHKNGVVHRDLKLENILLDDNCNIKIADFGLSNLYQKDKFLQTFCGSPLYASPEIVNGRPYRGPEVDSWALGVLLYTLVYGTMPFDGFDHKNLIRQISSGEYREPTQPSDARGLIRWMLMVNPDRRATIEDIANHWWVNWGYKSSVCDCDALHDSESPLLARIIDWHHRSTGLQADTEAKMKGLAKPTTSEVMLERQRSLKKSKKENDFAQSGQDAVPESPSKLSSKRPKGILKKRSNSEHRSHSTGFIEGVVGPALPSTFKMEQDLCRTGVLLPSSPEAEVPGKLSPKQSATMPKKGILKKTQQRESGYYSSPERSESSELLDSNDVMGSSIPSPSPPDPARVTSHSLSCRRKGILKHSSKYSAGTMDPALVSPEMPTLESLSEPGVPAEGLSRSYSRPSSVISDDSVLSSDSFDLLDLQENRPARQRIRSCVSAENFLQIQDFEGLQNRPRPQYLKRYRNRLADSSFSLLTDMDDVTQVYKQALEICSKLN
Chain of Atypical kinase COQ8B, mitochondrial (Homo sapiens) (Q96D53 whole entry): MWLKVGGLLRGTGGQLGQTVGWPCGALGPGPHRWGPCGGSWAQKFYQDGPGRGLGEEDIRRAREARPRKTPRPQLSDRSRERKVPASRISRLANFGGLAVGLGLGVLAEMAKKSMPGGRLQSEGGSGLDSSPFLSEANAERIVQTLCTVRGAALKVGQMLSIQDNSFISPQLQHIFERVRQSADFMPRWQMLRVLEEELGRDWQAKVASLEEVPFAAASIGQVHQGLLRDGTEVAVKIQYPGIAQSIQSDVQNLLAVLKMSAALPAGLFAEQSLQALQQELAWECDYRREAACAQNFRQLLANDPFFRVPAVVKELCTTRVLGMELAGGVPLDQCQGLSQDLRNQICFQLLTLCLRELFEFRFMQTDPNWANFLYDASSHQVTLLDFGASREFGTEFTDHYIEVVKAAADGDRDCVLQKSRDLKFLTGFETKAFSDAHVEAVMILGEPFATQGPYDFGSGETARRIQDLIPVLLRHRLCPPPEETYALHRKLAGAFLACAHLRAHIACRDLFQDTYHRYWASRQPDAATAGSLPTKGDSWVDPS
Chain of Rho-associated protein kinase 1 (Homo sapiens) (Q13464 2-1354 limits assumed): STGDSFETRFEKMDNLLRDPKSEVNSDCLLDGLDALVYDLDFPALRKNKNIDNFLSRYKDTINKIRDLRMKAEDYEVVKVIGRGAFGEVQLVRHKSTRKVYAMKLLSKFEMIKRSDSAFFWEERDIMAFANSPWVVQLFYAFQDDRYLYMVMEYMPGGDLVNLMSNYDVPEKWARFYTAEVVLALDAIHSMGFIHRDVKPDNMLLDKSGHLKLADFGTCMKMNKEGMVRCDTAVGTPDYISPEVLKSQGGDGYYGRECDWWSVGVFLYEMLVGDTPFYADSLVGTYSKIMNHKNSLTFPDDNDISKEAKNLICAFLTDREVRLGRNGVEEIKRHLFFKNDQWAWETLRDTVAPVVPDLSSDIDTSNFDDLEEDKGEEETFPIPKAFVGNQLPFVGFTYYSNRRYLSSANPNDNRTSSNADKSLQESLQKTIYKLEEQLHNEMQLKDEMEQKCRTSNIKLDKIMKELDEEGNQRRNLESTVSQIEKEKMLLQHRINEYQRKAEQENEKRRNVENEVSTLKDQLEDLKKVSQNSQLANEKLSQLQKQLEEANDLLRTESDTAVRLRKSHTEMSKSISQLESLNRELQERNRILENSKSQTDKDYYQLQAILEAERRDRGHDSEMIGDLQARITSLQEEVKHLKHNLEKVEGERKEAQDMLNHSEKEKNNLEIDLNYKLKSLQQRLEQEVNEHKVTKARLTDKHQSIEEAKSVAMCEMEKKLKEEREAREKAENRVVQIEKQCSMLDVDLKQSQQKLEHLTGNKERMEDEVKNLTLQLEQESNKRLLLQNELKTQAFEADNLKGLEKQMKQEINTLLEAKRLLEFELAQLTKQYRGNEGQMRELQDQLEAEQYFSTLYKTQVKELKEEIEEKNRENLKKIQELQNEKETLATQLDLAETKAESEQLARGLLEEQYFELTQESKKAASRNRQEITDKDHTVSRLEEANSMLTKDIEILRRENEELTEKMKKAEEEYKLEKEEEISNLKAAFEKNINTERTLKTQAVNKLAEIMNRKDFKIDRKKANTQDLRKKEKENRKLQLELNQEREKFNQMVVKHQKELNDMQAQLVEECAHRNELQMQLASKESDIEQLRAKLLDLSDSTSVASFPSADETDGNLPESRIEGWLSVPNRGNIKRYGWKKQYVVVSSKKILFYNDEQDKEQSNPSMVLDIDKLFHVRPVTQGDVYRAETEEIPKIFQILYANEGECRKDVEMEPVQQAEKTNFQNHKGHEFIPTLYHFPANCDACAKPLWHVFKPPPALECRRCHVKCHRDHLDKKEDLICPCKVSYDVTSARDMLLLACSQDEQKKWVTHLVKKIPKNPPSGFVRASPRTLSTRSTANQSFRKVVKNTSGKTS
Chain of Mitogen-activated protein kinase kinase kinase 7 (Homo sapiens) (O43318 whole entry): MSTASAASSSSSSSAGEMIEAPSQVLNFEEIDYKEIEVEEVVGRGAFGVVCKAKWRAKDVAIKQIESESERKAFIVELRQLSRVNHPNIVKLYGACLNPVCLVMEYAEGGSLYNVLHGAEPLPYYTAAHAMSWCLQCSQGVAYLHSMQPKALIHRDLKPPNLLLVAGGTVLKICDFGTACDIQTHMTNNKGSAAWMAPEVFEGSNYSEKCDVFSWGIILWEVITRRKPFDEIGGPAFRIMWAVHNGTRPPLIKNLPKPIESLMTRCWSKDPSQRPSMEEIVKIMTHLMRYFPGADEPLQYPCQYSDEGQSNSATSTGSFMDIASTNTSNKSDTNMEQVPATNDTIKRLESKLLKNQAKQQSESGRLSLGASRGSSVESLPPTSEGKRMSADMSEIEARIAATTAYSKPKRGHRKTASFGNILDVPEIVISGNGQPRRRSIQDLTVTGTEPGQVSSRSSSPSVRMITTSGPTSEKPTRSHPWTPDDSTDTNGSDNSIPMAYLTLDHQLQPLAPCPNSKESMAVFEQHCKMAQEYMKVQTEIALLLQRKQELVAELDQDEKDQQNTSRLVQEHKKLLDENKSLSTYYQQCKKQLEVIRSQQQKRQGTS
Chain of Muscarinic acetylcholine receptor M5 (Homo sapiens) (P08912 whole entry): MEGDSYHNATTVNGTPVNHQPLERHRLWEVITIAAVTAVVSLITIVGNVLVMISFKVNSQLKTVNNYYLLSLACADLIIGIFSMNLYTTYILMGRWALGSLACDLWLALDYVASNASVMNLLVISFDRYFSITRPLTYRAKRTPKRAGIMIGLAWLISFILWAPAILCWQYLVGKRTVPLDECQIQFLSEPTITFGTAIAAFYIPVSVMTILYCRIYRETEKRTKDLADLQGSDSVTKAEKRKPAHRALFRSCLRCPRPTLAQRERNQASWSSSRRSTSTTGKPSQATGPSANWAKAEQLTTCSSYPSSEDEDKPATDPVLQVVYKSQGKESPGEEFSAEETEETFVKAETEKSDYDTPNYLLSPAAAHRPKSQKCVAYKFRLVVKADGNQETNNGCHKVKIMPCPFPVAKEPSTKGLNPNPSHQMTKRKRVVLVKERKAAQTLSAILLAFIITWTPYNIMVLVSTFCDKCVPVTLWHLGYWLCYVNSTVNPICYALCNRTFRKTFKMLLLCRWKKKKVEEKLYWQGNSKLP
Chain of TRAF2 and NCK-interacting protein kinase (Homo sapiens) (Q9UKE5 whole entry, looked up): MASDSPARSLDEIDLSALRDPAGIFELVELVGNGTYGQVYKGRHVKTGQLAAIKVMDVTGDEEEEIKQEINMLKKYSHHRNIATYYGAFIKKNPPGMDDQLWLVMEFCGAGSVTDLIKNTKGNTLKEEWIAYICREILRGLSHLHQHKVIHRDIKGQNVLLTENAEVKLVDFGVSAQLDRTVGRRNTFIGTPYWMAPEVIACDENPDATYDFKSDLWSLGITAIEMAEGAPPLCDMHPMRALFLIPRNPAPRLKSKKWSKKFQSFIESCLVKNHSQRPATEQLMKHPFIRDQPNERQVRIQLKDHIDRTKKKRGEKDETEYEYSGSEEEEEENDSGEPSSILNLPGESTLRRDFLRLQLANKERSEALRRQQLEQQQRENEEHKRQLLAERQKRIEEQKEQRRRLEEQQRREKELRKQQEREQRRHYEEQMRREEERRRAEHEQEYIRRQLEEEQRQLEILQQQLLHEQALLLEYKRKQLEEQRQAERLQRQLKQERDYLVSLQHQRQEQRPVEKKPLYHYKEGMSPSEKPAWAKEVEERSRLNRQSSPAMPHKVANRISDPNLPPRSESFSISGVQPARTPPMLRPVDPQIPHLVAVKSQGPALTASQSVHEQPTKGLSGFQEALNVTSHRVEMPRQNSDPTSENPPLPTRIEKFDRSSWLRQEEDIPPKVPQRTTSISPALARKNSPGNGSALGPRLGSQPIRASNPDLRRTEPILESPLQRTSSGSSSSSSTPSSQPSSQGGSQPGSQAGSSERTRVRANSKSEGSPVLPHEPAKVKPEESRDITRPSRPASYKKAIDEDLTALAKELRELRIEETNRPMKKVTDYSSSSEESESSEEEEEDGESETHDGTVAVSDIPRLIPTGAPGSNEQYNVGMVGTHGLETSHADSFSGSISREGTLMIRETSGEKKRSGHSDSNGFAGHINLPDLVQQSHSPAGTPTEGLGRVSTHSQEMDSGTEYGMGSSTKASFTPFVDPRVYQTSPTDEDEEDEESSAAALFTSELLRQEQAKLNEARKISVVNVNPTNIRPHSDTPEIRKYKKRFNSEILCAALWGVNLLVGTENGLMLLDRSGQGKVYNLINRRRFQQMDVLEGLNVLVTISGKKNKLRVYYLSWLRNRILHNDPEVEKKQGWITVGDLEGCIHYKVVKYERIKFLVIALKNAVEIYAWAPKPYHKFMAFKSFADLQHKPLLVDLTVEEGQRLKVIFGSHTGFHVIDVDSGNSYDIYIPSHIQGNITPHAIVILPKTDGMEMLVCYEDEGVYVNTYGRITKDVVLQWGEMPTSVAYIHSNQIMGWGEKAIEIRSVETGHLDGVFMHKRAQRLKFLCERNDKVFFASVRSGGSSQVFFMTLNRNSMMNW

N#Cc1ccc(Nc2ccc3[nH]c(=O)[nH]c3c2)c(Cl)c1
inactive: residual activity [1] 100% | residual activity [2] 100% | residual activity [3] 100% | residual activity [4] 100% | residual activity [5] 100% | residual activity [6] 100% | residual activity [7] 100% | residual activity [8] 100% | residual activity [9] 100% | residual activity [10] 100% | residual activity [11] 98% | residual activity [12] 96% | residual activity [13] 89% | residual activity [14] 100% | residual activity [15] 100% | residual activity [16] 99% | residual activity [17] 100% | residual activity [18] 100% | residual activity [19] 100% | residual activity [20] 100% | residual activity [21] 88% | residual activity [22] 100% | residual activity [23] 94% | inhibition [24] 12.6% | residual activity [25] 100% | residual activity [26] 100% | residual activity [27] 90% | residual activity [28] 75% | residual activity [29] 93% | residual activity [30] 65% | residual activity [31] 99% | inhibition [32] 2.09% | residual activity [33] 100% | residual activity [34] 100% | residual activity [35] 62% | residual activity [36] 100% | residual activity [37] 93% | residual activity [38] 68% | residual activity [39] 100% | residual activity [40] 100% | residual activity [41] 100% | residual activity [42] 100% | residual activity [43] 100% | residual activity [44] 100% | inhibition [45] 11%

O=C1CCc2cc(Nc3cc(OC4CCOCC4)c([N+](=O)[O-])cc3Cl)ccc2N1
inactive: residual activity [1] 99% | residual activity [2] 100% | residual activity [3] 100% | residual activity [4] 84% | residual activity [5] 100% | residual activity [6] 100% | residual activity [7] 100% | residual activity [8] 91% | residual activity [9] 100% | residual activity [10] 100% | residual activity [11] 93% | residual activity [12] 100% | residual activity [13] 100% | residual activity [14] 100% | residual activity [15] 80% | residual activity [16] 100% | residual activity [17] 100% | residual activity [18] 100% | residual activity [19] 86% | residual activity [20] 100% | residual activity [21] 91% | residual activity [22] 100% | residual activity [23] 100% | inhibition [24] 12.6% | residual activity [25] 94% | residual activity [26] 100% | residual activity [27] 95% | residual activity [28] 90% | residual activity [29] 80% | residual activity [30] 60% | residual activity [31] 100% | inhibition [32] 4.66% | residual activity [33] 100% | residual activity [34] 100% | residual activity [35] 100% | residual activity [36] 100% | residual activity [37] 88% | residual activity [38] 98% | residual activity [39] 81% | residual activity [40] 100% | residual activity [41] 100% | residual activity [42] 100% | residual activity [43] 100% | residual activity [44] 91% | inhibition [45] 3.31%
